Measured values: the supplement of paper PMC11208160

Assay: recombinant barcode read abundance after kanamycin selection (control-corrected) (log10(CPM+1)); higher = more efficient recombination; sequences stand for … in AGTGCAGAGAAAATCGGCCAGTTTTCTCTGCCTGCAGTCCGCATGCCGT…AGATTTATGCAGCGGACTGCCTTTCTCCCAAAGTGATAAACCGGACAGTATCATGGACCGGTTTTCCCGGTAATCCGTATTTGCAAGGTTGGTTTCACT; site = the 11-nt target
How it was run: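 The screen was pooled in E. coli and paired targets with IS621 bridge RNA target-binding loops. Recombination efficiency is taken from barcode counts per million at recombinant junctions, averaged and adjusted against the control. Values, in the form log10(CPM+1), come from duplicate plating on chloramphenicol/ampicillin LB agar or on chloramphenicol/ampicillin/kanamycin with 0.1 mM IPTG.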
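Also: IS621 recombinase and bridge RNA in Escherichia coli cells.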

| Sequence | recombinant barcode read abundance (log10) |
| --- | --- |
| GTGTCGCCTTGGGTTCTAACCTGTTGCCT (site GTGTCGCCTAC) | 0.224 |
| GTGTCGCCTTGGGTTCTAACCTGTTGCCT (site GTGTCGCCTAG) | 0.845 |
| GTGTCGCCTTGGGTTCTAACCTGTTGCGT (site GTGTCGCCTAC) | 1.72 |
| GTGTCGCCTTGGGTTCTAACCTGTTGCGT (site GTGTCGCCTAG) | 0.0604 |
| GTGTCTCCTTGGGTTCTAACCTGTTGCAT (site GTGTATCCTAT) | 0.162 |
| GTGTCTCCTTGGGTTCTAACCTGTTGCAT (site GTGTCTCCTAT) | 1.54 |
| GTGTCTCCTTGGGTTCTAACCTGTTGCAT (site GTGTGTCCTAT) | 0.457 |
| GTGTCTCCTTGGGTTCTAACCTGTTGCAT (site GTGTTTCCTAT) | 0.243 |
| GTGTGTTCTTGGGTTCTAACCTGTTGCCT (site GTGTGTACTAG) | 1.15 |
| GTGTGTTCTTGGGTTCTAACCTGTTGCCT (site GTGTGTCCTAG) | 0.0466 |
| GTGTGTTCTTGGGTTCTAACCTGTTGCCT (site GTGTGTGCTAG) | 0 |
| GTGTGTTCTTGGGTTCTAACCTGTTGCCT (site GTGTGTTCTAG) | 0.726 |
| GTGTTGCCTTGGGTTCTAACCTGTTGCCT (site GAGTTGCCTAG) | 0.267 |
| GTGTTGCCTTGGGTTCTAACCTGTTGCCT (site GCGTTGCCTAG) | 0.392 |
| GTGTTGCCTTGGGTTCTAACCTGTTGCCT (site GGGTTGCCTAG) | 0.0383 |
| GTGTTGCCTTGGGTTCTAACCTGTTGCCT (site GTGTTGCCTAG) | 0.73 |
| GTTACCTCTTGGGTTCTAACCTGTTGCCT (site CAAGGTCCTCC) | 0.0556 |
| GTTACCTCTTGGGTTCTAACCTGTTGCCT (site GTTACCTCTAG) | 0.859 |

| Sequence | recombinant barcode read abundance (log10) |
| --- | --- |
| GTTAGCCCTTGGGTTCTAACCTGTTGCAT (site GTTAGCCCTAT) | 0.928 |
| GTTAGCCCTTGGGTTCTAACCTGTTGCAT (site TCACAGACTCG) | 0.0525 |
| GTTAGCCCTTGGGTTCTAACCTGTTGCGG (site GTCAGCCCTCC) | 0.167 |
| GTTAGCCCTTGGGTTCTAACCTGTTGCGG (site GTTAGCCCTCC) | 1.79 |
| GTTCCTGCTTGGGTTCTAACCTGTTGCCT (site GTTCCTCCTAG) | 0.265 |
| GTTCCTGCTTGGGTTCTAACCTGTTGCCT (site GTTCCTGCTAG) | 0.86 |
| GTTCGAGCTTGGGTTCTAACCTGTTGCCT (site GTTAGAGCTAG) | 0.276 |
| GTTCGAGCTTGGGTTCTAACCTGTTGCCT (site GTTCGAGCTAG) | 1.61 |
| GTTCGAGCTTGGGTTCTAACCTGTTGCCT (site GTTGGAGCTAG) | 0.114 |
| GTTCGAGCTTGGGTTCTAACCTGTTGCCT (site GTTTGAGCTAG) | 0.153 |
| GTTCGAGCTTGGGTTCTAACCTGTTGCGG (site ATTCGAGCTCC) | 1.74 |
| GTTCGAGCTTGGGTTCTAACCTGTTGCGG (site GTTCGAGCTCC) | 2.49 |
| GTTGACCCTTGGGTTCTAACCTGTTGCCT (site GTAGACCCTCG) | 0.0195 |
| GTTGACCCTTGGGTTCTAACCTGTTGCCT (site GTTGACCCTAG) | 2.2 |
| GTTGGCCCTTGGGTTCTAACCTGTTGCCT (site GATGGCCCTAG) | 0.579 |
| GTTGGCCCTTGGGTTCTAACCTGTTGCCT (site GCTGGCCCTAG) | 0.306 |
| GTTGGCCCTTGGGTTCTAACCTGTTGCCT (site GGTGGCCCTAG) | 0.152 |
| GTTGGCCCTTGGGTTCTAACCTGTTGCCT (site GTTGGCCCTAG) | 1.94 |
